According to patent EP4483954A1 (Masarykova Univerzita, priority 2023, dated 2025):

Tests used:
Format in all cases: biochemical
TRB2(h) = molecular target: T1, TRB2(h) (Homo sapiens, UniProt Q92519); assay: radiometric kinase assay (KinaseProfiler, Eurofins), TRB2; settings: in vitro radiometric kinase assay, tested at 1 nM to 10 000 nM, no pre-incubation; read-out: inhibitory activities (IC50 values) TRB2
T1 construct: purchased Eurofins (KinaseProfiler)
T1 sequence (Q92519 1-343): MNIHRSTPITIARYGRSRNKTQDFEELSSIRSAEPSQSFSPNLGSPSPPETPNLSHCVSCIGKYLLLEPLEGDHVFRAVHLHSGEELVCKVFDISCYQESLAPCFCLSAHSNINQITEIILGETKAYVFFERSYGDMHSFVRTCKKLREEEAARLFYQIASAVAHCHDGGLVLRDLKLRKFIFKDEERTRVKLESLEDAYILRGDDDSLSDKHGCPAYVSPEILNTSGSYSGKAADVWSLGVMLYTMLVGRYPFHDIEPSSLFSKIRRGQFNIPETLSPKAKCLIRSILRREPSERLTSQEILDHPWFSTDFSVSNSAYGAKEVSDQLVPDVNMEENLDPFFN
Protocol: (§1) The compounds were profiled in the radiometric assays (KinaseProfiler, Eurofins).
(§2) Briefly, kinases were diluted in the buffer shown below prior to addition to the reaction mix: • CDKL3, TAF1L: 20 mM Tris/HCl pH 8.5, 0.2 mM EDTA, 0.1% β-mercaptoethanol, 0.01% Brij-35, 5% glycerol, 1 mg/ml BSA; • Haspin: 15 mM MOPS, 0.75 mM EDTA, 0.0075% Brij-35, 3.75% Glycerol, 150 mM NaCl, 0.1% β-mercaptoethanol, 1 mg/mLBSA; • CDKL4, CLK2, PIM1, TRB2: […], 1 mM EDTA, 0.01% Brij-35, 5% Glycerol, 0.1% β-mercaptoethanol, 1 mg/mL BSA.
(§3) All compounds were prepared to 50x final assay concentration in 100% DMSO. This working stock of the compound was added to the assay well as the first component in the reaction, followed by the remaining components as detailed in the general assay protocols below. There was no pre-incubation step between the compound and the kinase prior to initiation of the reaction.
(§4) TRB2(h) was incubated with 8 mM MOPS pH 7.0, 0.2 mM EDTA, 250 µM RRRFRPASPLRGPPK (SEQ ID NO. 1), 10 mM magnesium acetate and γ-^33P-ATP (specific activity and concentration as required). The reaction was initiated by the addition of the Mg/ATP mix. After incubation for 120 minutes at room temperature, the reaction was stopped by the addition of phosphoric acid to a concentration of 0.5%. An aliquot of the stopped reaction was spotted onto a filter and washed four times for 4 minutes in 0.425% phosphoric acid and once in methanol prior to drying and scintillation counting.
(§5) Kinase activity data were expressed as the percent remaining kinase activity in tested samples compared to the vehicle (DMSO) reactions. The compounds were tested at the following concentrations: 1 nM, 3 nM, 10 nM, 30 nM, 100 nM, 300 nM, 1000 nM, 3000 nM, and 10 000 nM; IC50 values and curve fits were then obtained.

CLK2 (h) = molecular target: T2, CLK2 (h) (Homo sapiens, UniProt P49760); assay: radiometric kinase assay (KinaseProfiler, Eurofins), CLK2; settings: in vitro radiometric kinase assay, tested at 1 nM to 10 000 nM, no pre-incubation; read-out: inhibitory activities (IC50 values) CLK2
T2 construct: purchased Eurofins (KinaseProfiler)
Protocol: as §1, §2, §3
CLK2 (h) was incubated with 8 mM MOPS pH 7.0, 0.2 mM EDTA, 20 µM […](p)EDEEE (SEQ ID NO. 2), 10 mM magnesium acetate and γ-^33P-ATP (specific activity and concentration as required). The reaction was initiated by the addition of the Mg/ATP mix. After incubation for 40 minutes at room temperature, the reaction was stopped by the addition of phosphoric acid to a concentration of 0.5%. An aliquot of the reaction was then spotted onto a filter and washed four times for 4 minutes in 0.425% phosphoric acid and once in methanol prior to drying and scintillation counting.
as §5

CDKL3(h) = molecular target: T3, CDKL3(h) (Homo sapiens, UniProt Q8IVW4); assay: radiometric kinase assay (KinaseProfiler, Eurofins), CDKL3; settings: in vitro radiometric kinase assay, tested at 1 nM to 10 000 nM, no pre-incubation; read-out: inhibitory activities (IC50 values) CDKL3
T3 construct: purchased Eurofins (KinaseProfiler)
Protocol: as §1, §2, §3
as §4, with “CDKL3(h)” for “TRB2(h)”
as §5

CDKL4(h) = molecular target: T4, CDKL4(h) (Homo sapiens, UniProt Q5MAI5); assay: radiometric kinase assay (KinaseProfiler, Eurofins), CDKL4; settings: in vitro radiometric kinase assay, tested at 1 nM to 10 000 nM, no pre-incubation; read-out: inhibitory activities (IC50 values) CDKL4
T4 construct: purchased Eurofins (KinaseProfiler)
Protocol: as §1, §2, §3
as §4, with “CDKL4(h)” for “TRB2(h)”
as §5

PIM1 (h) = molecular target: T5, PIM1 (h) (Homo sapiens, UniProt P11309); assay: radiometric kinase assay (KinaseProfiler, Eurofins), PIM1; settings: in vitro radiometric kinase assay, tested at 1 nM to 10 000 nM, no pre-incubation; read-out: inhibitory activities (IC50 values) PIM1
T5 construct: purchased Eurofins (KinaseProfiler)
Protocol: as §1, §2, §3
PIM1 (h) was incubated with 8 mM MOPS pH 7.0, 0.2 mM EDTA, 100 µM KKRNRTLTV (SEQ ID NO. 4), 10 mM magnesium acetate and γ-^33P-ATP (specific activity and concentration as required). The reaction was initiated by the addition of the Mg/ATP mix. After incubation for 40 minutes at room temperature, the reaction was stopped by the addition of phosphoric acid to a concentration of 0.5%. An aliquot of the reaction was then spotted onto a filter and washed four times for 4 minutes in 0.425% phosphoric acid and once in methanol prior to drying and scintillation counting.
as §5

T3 sequence (Q8IVW4 whole entry): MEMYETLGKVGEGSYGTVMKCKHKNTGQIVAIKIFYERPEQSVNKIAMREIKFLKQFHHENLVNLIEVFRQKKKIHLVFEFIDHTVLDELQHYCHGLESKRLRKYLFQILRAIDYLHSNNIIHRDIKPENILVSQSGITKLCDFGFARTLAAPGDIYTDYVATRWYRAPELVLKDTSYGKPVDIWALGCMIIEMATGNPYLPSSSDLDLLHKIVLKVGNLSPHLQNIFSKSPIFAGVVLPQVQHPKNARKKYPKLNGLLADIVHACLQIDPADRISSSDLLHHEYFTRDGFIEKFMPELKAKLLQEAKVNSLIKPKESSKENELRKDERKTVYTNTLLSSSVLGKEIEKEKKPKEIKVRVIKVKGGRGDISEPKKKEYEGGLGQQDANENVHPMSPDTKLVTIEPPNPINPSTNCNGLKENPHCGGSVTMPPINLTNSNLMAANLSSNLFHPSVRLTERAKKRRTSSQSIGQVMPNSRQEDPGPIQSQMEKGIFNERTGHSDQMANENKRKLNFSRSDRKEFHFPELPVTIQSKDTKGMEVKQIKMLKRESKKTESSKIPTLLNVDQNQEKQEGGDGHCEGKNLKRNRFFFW
T2 sequence (P49760 whole entry): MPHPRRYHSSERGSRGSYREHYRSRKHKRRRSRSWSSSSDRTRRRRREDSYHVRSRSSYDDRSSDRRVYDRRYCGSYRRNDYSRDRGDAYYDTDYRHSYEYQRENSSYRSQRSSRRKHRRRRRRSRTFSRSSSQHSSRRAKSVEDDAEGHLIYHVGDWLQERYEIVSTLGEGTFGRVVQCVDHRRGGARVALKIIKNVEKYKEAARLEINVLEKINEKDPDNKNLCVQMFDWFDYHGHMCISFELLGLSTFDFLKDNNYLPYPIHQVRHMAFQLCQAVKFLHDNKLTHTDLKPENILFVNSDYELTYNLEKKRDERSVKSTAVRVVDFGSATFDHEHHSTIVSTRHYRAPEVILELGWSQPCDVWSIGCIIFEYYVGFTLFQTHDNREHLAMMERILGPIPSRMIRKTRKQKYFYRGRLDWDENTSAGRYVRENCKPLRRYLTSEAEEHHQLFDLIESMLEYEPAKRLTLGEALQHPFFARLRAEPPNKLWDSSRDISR
T5 sequence (P11309 whole entry): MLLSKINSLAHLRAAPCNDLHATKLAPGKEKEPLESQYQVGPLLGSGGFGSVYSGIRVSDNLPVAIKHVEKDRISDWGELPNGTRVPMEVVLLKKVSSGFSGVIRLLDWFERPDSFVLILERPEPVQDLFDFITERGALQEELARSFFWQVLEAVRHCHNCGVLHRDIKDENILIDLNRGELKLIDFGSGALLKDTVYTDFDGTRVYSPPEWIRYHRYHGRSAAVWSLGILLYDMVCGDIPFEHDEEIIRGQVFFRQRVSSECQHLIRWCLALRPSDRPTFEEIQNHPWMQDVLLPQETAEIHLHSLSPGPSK
T4 sequence (Q5MAI5 whole entry): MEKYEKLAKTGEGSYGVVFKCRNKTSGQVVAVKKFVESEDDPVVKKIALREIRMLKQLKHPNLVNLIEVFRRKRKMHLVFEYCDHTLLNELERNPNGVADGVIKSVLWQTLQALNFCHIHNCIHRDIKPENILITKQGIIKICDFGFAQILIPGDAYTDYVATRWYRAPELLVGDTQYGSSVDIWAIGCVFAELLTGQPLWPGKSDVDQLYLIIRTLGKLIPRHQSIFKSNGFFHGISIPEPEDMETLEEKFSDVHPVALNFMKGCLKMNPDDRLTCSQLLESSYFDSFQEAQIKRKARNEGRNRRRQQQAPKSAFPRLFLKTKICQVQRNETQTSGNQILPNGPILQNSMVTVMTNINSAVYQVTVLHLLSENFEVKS

IC50 (TRB2(h)) | IC50 (CLK2 (h)) | IC50 (CDKL3(h)) | IC50 (CDKL4(h)) | IC50 (PIM1 (h)) | Structure (SMILES)
3000 to 10000 nM | 3000 to 10000 nM | 3000 to 10000 nM | 3000 to 10000 nM | 3000 to 10000 nM | c1ccc(-c2csc3ccc(-c4cnoc4)nc23)cc1 [Preparative Example 124, 4-(3-phenylthieno[3,2-b]pyridin-5-yl)isoxazole]
500 to 3000 nM | 500 to 3000 nM | 3000 to 10000 nM | 500 to 3000 nM | 500 to 3000 nM | Cn1cc(-c2csc3ccc(Oc4ccccc4)nc23)cn1 [Preparative Example 139, 3-(1-methyl-1H-pyrazol-4-yl)-5-phenoxythieno[3,2-b]pyridine]
500 to 3000 nM | 3000 to 10000 nM | 500 to 3000 nM | 500 to 3000 nM | 3000 to 10000 nM | Cc1sc2ccc(-c3cnn(C)c3)nc2c1-c1ccncc1 [Preparative Example 142, 2-methyl-5-(1-methyl-1H-pyrazol-4-yl)-3-(pyridin-4-yl)thieno[3,2-b]pyridine]
500 to 3000 nM | 3000 to 10000 nM | 500 to 3000 nM | 500 to 3000 nM | 500 to 3000 nM | Cc1cc2scc(-c3ccncc3)c2nc1-c1cnn(C)c1 [Preparative Example 150, 6-methyl-5-(1-methyl-1H-pyrazol-4-yl)-3-(pyridin-4-yl)thieno[3,2-b]pyridine]
3000 to 10000 nM | 3000 to 10000 nM | 3000 to 10000 nM | 3000 to 10000 nM | 3000 to 10000 nM | Cc1cc2scc(-c3ccncc3)c2nc1-c1ccn(C)n1 [Preparative Example 151, 6-methyl-5-(1-methyl-1H-pyrazol-3-yl)-3-(pyridin-4-yl)thieno[3,2-b]pyridine]
500 to 3000 nM | 3000 to 10000 nM | 500 to 3000 nM | 500 to 3000 nM | 3000 to 10000 nM | Cc1cc(-c2cnn(C)c2)nc2c(-c3ccncc3)csc12 [Preparative Example 157, 7-methyl-5-(1-methyl-1H-pyrazol-4-yl)-3-(pyridin-4-yl)thieno[3,2-b]pyridine]
100 to 499 nM | 500 to 3000 nM | 100 to 499 nM | 100 to 499 nM | 500 to 3000 nM | Cn1cc(-c2cc(Cl)c3scc(-c4ccncc4)c3n2)cn1 [Preparative Example 162, 7-chloro-5-(1-methyl-1H-pyrazol-4-yl)-3-(pyridin-4-yl)thieno[3,2-b]pyridine]
500 to 3000 nM | 3000 to 10000 nM | 500 to 3000 nM | 500 to 3000 nM | 3000 to 10000 nM | Cn1ccc(-c2cc(Cl)c3scc(-c4ccncc4)c3n2)n1 [Preparative Example 163, 7-chloro-5-(1-methyl-1H-pyrazol-3-yl)-3-(pyridin-4-yl)thieno[3,2-b]pyridine]

Continued, compound first:

Structure (SMILES) | IC50 (TRB2(h)) | IC50 (CLK2 (h)) | IC50 (CDKL3(h)) | IC50 (CDKL4(h)) | IC50 (PIM1 (h))
Cc1nn(C)c(C)c1-c1ccc2scc(-c3ccncc3)c2n1 [Preparative Example 85, 3-(pyridin-4-yl)-5-(1,3,5-trimethyl-1H-pyrazol-4-yl)thieno[3,2-b]pyridine] | 500 to 3000 nM | 3000 to 10000 nM | 500 to 3000 nM | 500 to 3000 nM | 3000 to 10000 nM
Cn1ccc(-c2ccc3scc(-c4ccncc4)c3n2)n1 [Preparative Example 86, 5-(1-methyl-1H-pyrazol-3-yl)-3-(pyridin-4-yl)thieno[3,2-b]pyridine] | 3000 to 10000 nM | 3000 to 10000 nM | 500 to 3000 nM | 3000 to 10000 nM | 3000 to 10000 nM
Cn1nccc1-c1ccc2scc(-c3ccncc3)c2n1 [Preparative Example 90, 5-(1-methyl-1H-pyrazol-5-yl)-3-(pyridin-4-yl)thieno[3,2-b]pyridine] | 500 to 3000 nM | 3000 to 10000 nM | 500 to 3000 nM | 500 to 3000 nM | 3000 to 10000 nM
Cn1cncc1-c1ccc2scc(-c3ccncc3)c2n1 [Preparative Example 91, 5-(1-methyl-1H-imidazol-5-yl)-3-(pyridin-4-yl)thieno[3,2-b]pyridine] | 500 to 3000 nM | 500 to 3000 nM | 500 to 3000 nM | 500 to 3000 nM | 100 to 499 nM
Cn1cc(-c2ccc3scc(-c4ccncc4)c3n2)nn1 [Preparative Example 93, 5-(1-methyl-1H-1,2,3-triazol-4-yl)-3-(pyridin-4-yl)thieno[3,2-b]pyridine] | 500 to 3000 nM | 3000 to 10000 nM | 3000 to 10000 nM | 3000 to 10000 nM | 500 to 3000 nM
Cn1ncc(-c2ccc3scc(-c4ccncc4)c3n2)n1 [Preparative Example 94, 5-(2-methyl-2H-1,2,3-triazol-4-yl)-3-(pyridin-4-yl)thieno[3,2-b]pyridine] | 500 to 3000 nM | 3000 to 10000 nM | 500 to 3000 nM | 500 to 3000 nM | 3000 to 10000 nM
Cn1ccc(Nc2ccc3scc(-c4ccncc4)c3n2)n1 [Preparative Example 99, N-(1-methyl-1H-pyrazol-3-yl)-3-(pyridin-4-yl)thieno[3,2-b]pyridin-5-amine] | 100 to 499 nM | 500 to 3000 nM | 100 to 499 nM | 500 to 3000 nM | 500 to 3000 nM
c1cc(-c2csc3ccc(Nc4cc[nH]n4)nc23)ccn1 [Preparative Example 101, N-(1H-pyrazol-3-yl)-3-(pyridin-4-yl)thieno[3,2-b]pyridin-5-amine] | 20 to 99 nM | 100 to 499 nM | 20 to 99 nM | 100 to 499 nM | 500 to 3000 nM
Fc1cc(-c2ccc3scc(-c4ccccc4)c3n2)cc(F)c1F [Preparative Example 122, 3-phenyl-5-(3,4,5-trifluorophenyl)thieno[3,2-b]pyridine] | 3000 to 10000 nM | 3000 to 10000 nM | 3000 to 10000 nM | 3000 to 10000 nM | 3000 to 10000 nM
c1ccc(-c2csc3ccc(-c4ccoc4)nc23)cc1 [Preparative Example 123, 5-(furan-3-yl)-3-phenylthieno[3,2-b]pyridine] | 3000 to 10000 nM | 3000 to 10000 nM | 3000 to 10000 nM | 3000 to 10000 nM | 3000 to 10000 nM
